The values below come from patent US10966912B2, “Medicament” (SYMRISE AG, priority 2016, dated 2021).

What all share (format): cell-based
Assay [1] deals with Human epidermal melanoma cells A375. Put plainly: Basal melanin formation in vitro. The settings on record: for melanin: basal.
Assay [2] has the same test system. As to the kind of experiment: Visible light induced hyperpigmentation in vitro. The settings on record: for Inhibition vs visible light induced / melanin: visible light 480 J/cm2, A375 cells; for melanin: treated 48 h before and after irradiation. How it is done:
Human epidermal melanoma cells A375 were cultured in 6-well plates. The cells were exposed to visible light (480 J/cm2) with Hydrosun 750 equipped with KG1 filter. 48 h prior to and past to the irradiation the cells were treated with test compounds in non-cytotoxic concentrations. Melanocytes were lysed in a solution of NaOH. Melanin was quantified by measurement of absorbance at 405 nm and calculation based on a melanin standard curve.

In assay [3] the test system is ex vivo human skin explants. As to the kind of experiment: Melanin formation after visible light irradiation on ex vivo human skin. The settings on record: visible light 480 J/cm2; for Inhibition vs Placebo: ex vivo human skin; for % of melanin: topical on skin explant phototype IV, Fontana-Masson stain, image analysis. How it is done: The below formulations were applied on ex vivo human skin explants from abdominal surgery of a donor with phototype IV (Fitzpatrick scale). 48 h after the formulations were removed with a cotton pad. Skin explants were exposed to visible light (480 J/cm2) with Hydrosun 750 equipped with KG1 filter. Formulations were reapplied afterwards. 48 h later skin sections were prepared and melanin was stained by Fontana-Masson stain. Quantification of melanin was done by image analysis.

Regarding `NCCC(=O)N[C@@H](Cc1cnc[nH]1)C(=O)O` [L-carnosine], the “effect on basal melanin formation” value in assay [1] was “no effect”. The melanin in assay [1] (0.001% L-carnosine) was found to be 0.6845 µg; in assay [1] (0.00316% L-carnosine), 0.6186 µg; in assay [2] (0.001% L-carnosine) it was 0.5601 µg; in assay [2] (0.00316% L-carnosine), 0.5478 µg; in assay [2] (0.01% L-carnosine) it was 0.6594 µg; in assay [2] (0.0316% L-carnosine), 0.6296 µg. In addition, the “Inhibition vs visible light induced” value was 110% in assay [2] (0.001% L-carnosine), 113% in assay [2] (0.00316% L-carnosine), 81% in assay [2] (0.01% L-carnosine) and 90% in assay [2] (0.0316% L-carnosine). The “visible light induced hyperpigmentation” value in assay [2] (A375 cells) is listed as “inhibits significantly”. The “Inhibition vs Placebo” value in assay [3] (0.05% L-carnosine (formulation C)) is listed as 91.1%; in assay [3] (0.2% L-carnosine (formulation B)), 92.2%. Moreover, the “% of melanin” value in assay [3] (0.05% L-carnosine (formulation C, Table 3)) was 35.74 ± 2.6%; in assay [3] (0.2% L-carnosine (formulation B, Table 3)), 35.44 ± 2.3%.
